From PMC3220813 (Cancer Chemotherapy and Pharmacology, 2011)
In brackets after ≈: the same amount, converted by molar mass. Where two headings read alike, the source gives them in different places. Marks after values point to notes of the source that are not given here.

Legend:
[1] = cited from earlier work
[2] = format: in vivo, human; conditions: for AUC0–t, geometric mean / AUC, geometric mean / Cmax, geometric mean / t1/2, geometric mean / tmax, median / CL/F, geometric mean / Vd/F: PP population; for time up to which measurable plasma concentrations were observed: both fed and fasted periods; for Vd/F: Vz/F, geometric mean
purified MEK1 = conditions: cited from earlier work
[3] = cited from earlier work; for increase in drug exposure with a high-fat meal: CI-1040 at 800 and 1,600 mg
Caco-2 cells = conditions: ref data on file; cited from earlier work
Safety and tolerability = format: in vivo, human
[4] = Classification by permeability and solubility; conditions: tentative; class IV = low permeability and low solubility
[5] = ref data on file, cited from earlier work
[6] = tested on: advanced solid malignancies; assay: Objective tumor response by RECIST 1.0; format: in vivo, human; conditions: 28 evaluable patients, both cutaneous melanoma
[7] = tested on: various other kinases, enzymes, receptors, ion channels, and transporters; conditions: cited from earlier work
[8] = in vivo; cited from earlier work
[9] = Fasted, metabolite after 75 mg selumetinib
[10] = Fed, metabolite after 75 mg selumetinib
[11] = AEs ≥10% of patients, safety population N = 30
[12] = reported in ≥2 patients, safety population, Total (N = 11)

## O=C(NOCCO)c1cc2nc[nH]c2c(F)c1Nc1ccc(Br)cc1Cl [N-desmethyl-selumetinib]
[1]; plasma metabolite exposure
  AUC relative to parent compound: < 15%
  Cmax relative to parent compound: < 15%
[2]; [9]
  AUC0–t, geometric mean: 376.4 ng/h/mL
  AUC, geometric mean: 418.4 ng·h/mL
  Cmax, geometric mean: 73.9 ng/mL
  t1/2, geometric mean: 7.7 h
  tmax, median: 1.50^a h
[2]; [10]
  AUC0–t, geometric mean: 282.4 ng/h/mL
  AUC, geometric mean: 379.1 ng·h/mL
  Cmax, geometric mean: 33.5 ng/mL
  t1/2, geometric mean: 6.8 h
  tmax, median: 4.0^a h
[2]
  time up to which measurable plasma concentrations were observed: up to 24 h
[2]; fasted state
  ratio of N-desmethyl-selumetinib to selumetinib (metabolite to parent): 0.07
[2]; fed state
  ratio of N-desmethyl-selumetinib to selumetinib (metabolite to parent): 0.06
[2]; metabolite after 75 mg selumetinib
  delay of median tmax in the fed condition: approximately 3 h
Purified MEK1; in vitro
  greater potency for MEK1 inhibition than selumetinib: 3- to 5 fold

## O=C(O)c1ccc(F)c(F)c1Nc1ccc(I)cc1Cl [PD-0184264]
[3]
  increase in drug exposure with a high-fat meal: 5 fold

## Cn1cnc2c(F)c(Nc3ccc(Br)cc3Cl)c(C(N)=O)cc21 [selumetinib amide]
Purified MEK1
  less active than selumetinib: up to 50 fold

## O=C(NOCC1CC1)c1ccc(F)c(F)c1Nc1ccc(I)cc1Cl [CI-1040]
[3]
  increase in drug exposure with a high-fat meal: 4.5 fold
[3]; administered with food
  MTD and recommended Phase II dose (RP2D): 800 mg BID

## Cn1cnc2c(F)c(Nc3ccc(Br)cc3Cl)c(C(=O)NOCCO)cc21 [selumetinib]
[1]; across studied dose range
  total body clearance from plasma after an oral dose (CL/F): 12 to 23 L/h
  volume of distribution at steady state (Vss/F): 87 to 126 L
[1]; single dose
  terminal elimination half-life (t1/2): 5 to 8 h
Caco-2 cells
  permeability across Caco-2 cells: moderate permeability
[2]; 75 mg, fed minus fasted
  delay of median tmax in the presence of food: approximately 2.5 h
[2]; Fasted
  CL/F, geometric mean: 12.9 L/h
[2]; Fed
  CL/F, geometric mean: 16.0 L/h
[2]
  time up to which measurable plasma concentrations were observed: up to 48 h
[2]; human, plasma, oral, 75 mg
  AUC(0-t): 5640 ng·h/mL
[2]; human, plasma, oral, 75 mg, Fasted
  Vd/F: 175 L
[2]; human, plasma, oral, 75 mg, Fed
  Vd/F: 199 L
Safety and tolerability; 75 mg, advanced cancer population
  tolerability / safety profile: well tolerated
Safety and tolerability; [11]
  Abdominal pain, number (%) of patients: 8 (26.7) Number (%) of patients
  Anemia, number (%) of patients: 7 (23.3) Number (%) of patients
  Constipation, number (%) of patients: 11 (36.7) Number (%) of patients
  Diarrhea, number (%) of patients: 14 (46.7) Number (%) of patients
  Dizziness, number (%) of patients: 8 (26.7) Number (%) of patients
  Dyspnoea, number (%) of patients: 10 (33.3) Number (%) of patients
  Edema peripheral, number (%) of patients: 7 (23.3) Number (%) of patients
  Fatigue, number (%) of patients: 13 (43.3) Number (%) of patients
  Headache, number (%) of patients: 7 (23.3) Number (%) of patients
  Nausea, number (%) of patients: 18 (60.0) Number (%) of patients
  Rash, number (%) of patients: 16 (53.3) Number (%) of patients
  Vomiting, number (%) of patients: 9 (30.0) Number (%) of patients
Safety and tolerability; extension part, 75 mg BD, largely due to AEs (n = 6)
  patients with one or more dose reductions: 10 patients
Safety and tolerability; intestinal perforation due to disease progression
  patients who died whilst on study: 3.3%
Safety and tolerability; not considered causally related to study treatment
  patients with grade 4 AEs: 6.7%
Safety and tolerability; overall safety population, 30 patients
  patients reporting an AE of grade 3 or higher: 60.0%
Safety and tolerability; [12]
  Abdominal pain, SAE of ≥CTC grade 3, number (%) of patients: 2 (6.7) Number (%) of patients
  Anemia, SAE of ≥CTC grade 3, number (%) of patients: 2 (6.7) Number (%) of patients
  Constipation, SAE of ≥CTC grade 3, number (%) of patients: 2 (6.7) Number (%) of patients
  Dyspnoea, SAE of ≥CTC grade 3, number (%) of patients: 3 (10.0) Number (%) of patients
  Vomiting, SAE of ≥CTC grade 3, number (%) of patients: 2 (6.7) Number (%) of patients
[4]
  class (permeability/solubility classification): tentative class IV
[5]; pH1
  solubility: 274 µg/mL (≈ 599 µM)
[5]; pH 7.4
  solubility: 3.4 µg/mL (≈ 7.43 µM)
[6]
  partial responses: 7.1%
Purified MEK1; read-out: IC50 against purified MEK1
  IC50: 14 nM
[7]
  activity against various other kinases, enzymes, receptors, ion channels, and transporters: did not show significant activity
[8]
  route of excretion: predominantly via the feces
